Results from patent publication US9561228B2 (Celgene Avilomics Research, Inc., priority 2013, dated 2017).

Each compound was assayed against T1, MEK1 activated ERK1 (Homo sapiens, UniProt P27361) (assay: Omnia continuous-read kinase assay for potency against MEK1 activated ERK1). Conditions: MEK1 activated ERK1, ATP at KM; read-out: ERK1 Omnia WT ATP KM IC50.
T1 construct: purchased Millipore (Billerica, Mass.) 14-439-K
Format: biochemical
From the text: Omnia Assay Protocol for Potency Assessment Against MEK1 Activated ERK1:
The protocol below describes continuous-read kinase assays to measure potency of compounds against activated ERK1 enzyme. The mechanics of the assay platform are best described by the vendor (Invitrogen, Carlsbad, Calif.) on their website at the following URL: invitrogen.com/site/us/en/home.html.
Briefly, a 1.25× stock of ERK1 enzyme (14-439-K) from Millipore (Billerica, Mass.), 5×ATP (AS001A) and ST17-Sox conjugated peptide substrate (KNZ1171C) were prepared in 1× kinase reaction buffer consisting of 20 mM Tris, pH 7.5, 5 mM MgCl2, 1 mM EGTA, 5 mM β-glycerophosphate, 5% glycerol (10× stock, KB002A) and 0.2 mM DTT. 10 μL of ATP/ST17-sox peptide substrate mix was combined with 0.5 μL volume of 100% DMSO and serially diluted compounds were prepared in 100% DMSO in a Corning (#3574) 384-well, white, non-binding surface microtiter plate (Corning, N.Y.). Kinase reactions were started with the addition of 40 μL of ERK1 solution and monitored every 71 seconds for 30-240 minutes at λex360/λem485 in a Synergy plate reader from BioTek (Winooski, Vt.). At the conclusion of each assay, progress curves from each well were examined for linear reaction kinetics and fit statistics (R^2, 95% confidence interval, absolute sum of squares). Initial velocity (0 minutes to ˜30+ minutes) from each reaction was determined from the slope of a plot of relative fluorescence units vs time (minutes or seconds) and then plotted against inhibitor concentration to estimate ^AppIC50 from log [Inhibitor] vs Response, Variable Slope model in GraphPad Prism from GraphPad Software (San Diego, Calif.).
[Reagent] used in optimized protocol:
[ERK1]=4 nM, [ATP]=50 μM, [ST17-Sox]=10 μM (ATP ^appKM 48 μM)
The results of this assay show the degree of inhibition of ERK activity, which is a direct measurement of inhibition of ERK activity. Results from this assay are reported in Table A under the column “ERK1 Omnia WT ATP KM IC50 (nM).”

T1 sequence (P27361 whole entry): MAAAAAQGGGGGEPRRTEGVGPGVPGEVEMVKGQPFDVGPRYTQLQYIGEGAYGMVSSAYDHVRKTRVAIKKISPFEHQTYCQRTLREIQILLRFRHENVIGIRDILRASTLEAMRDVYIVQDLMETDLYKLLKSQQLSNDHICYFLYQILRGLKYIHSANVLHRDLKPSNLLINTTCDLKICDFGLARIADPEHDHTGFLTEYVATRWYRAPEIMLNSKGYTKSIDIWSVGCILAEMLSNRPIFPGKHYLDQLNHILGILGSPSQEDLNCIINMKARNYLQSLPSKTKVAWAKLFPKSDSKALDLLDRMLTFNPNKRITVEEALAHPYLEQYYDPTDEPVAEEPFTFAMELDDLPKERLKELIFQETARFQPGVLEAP

`C=CC(=O)Nc1ccccc1Nc1nc(N[C@@H]2CCC[C@H](C(=O)NOCCO)C2)ncc1C(F)(F)F` (racemic) [Compound I-4, Rac-cis-3-((4-((2-acrylamidophenyl)amino)-5-(trifluoromethyl)pyrimidin-2-yl)amino)-N-(2-hydroxyethoxyl)cyclohexanecarboxamide] and `C=CC(=O)Nc1ccccc1Nc1nc(N[C@H]2CC[C@H](C(N)=O)CC2)ncc1C(F)(F)F` [Compound I-16, 4-((4-((2-acrylamidophenyl)amino)-5-(trifluoromethyl)pyrimidin-2-yl)amino)-trans-cyclohexanecarboxamide] fall in the same range of IC50: 101 to 500 nM for the first, 101 to 500 nM for the second.

`C=CC(=O)Nc1ccccc1Nc1nc(N[C@@H]2CCC[C@H](C(=O)NOC)C2)ncc1Cl` (racemic) [Compound I-203, Rac-cis-3-((4-((2-acrylamidophenyl)amino)-5-chloropyrimidin-2-yl)amino)-N-methoxycyclohexanecarboxamide] and `C=CC(=O)Nc1ccccc1Nc1nc(N[C@H]2CC[C@H](C(N)=O)CC2)ncc1Cl` [Compound I-129, trans-4-((4-((2-acrylamidophenyl)amino)-5-chloropyrimidin-2-yl)amino)-cyclohexanecarboxamide] fall in the same range of IC50: 101 to 500 nM for the first, 101 to 500 nM for the second.

`C=CC(=O)N[C@@H]1CCCC[C@H]1Nc1nc(Nc2cc(C(=O)NOCCO)ccc2C)ncc1C(N)=O` (racemic) [Compound I-257, Rac-trans-4-((2-acrylamidocyclohexyl)amino)-2-((5-((2-hydroxyethoxy)carbamoyl)-2-methylphenyl)amino)pyrimidine-5-carboxamide] and `C=CC(=O)N[C@@H]1CCCC[C@H]1Oc1nc(Nc2cc(C(=O)NOC)ccc2C)ncc1C(N)=O` (racemic) [Compound I-269, Rac-trans-4-((2-acrylamidocyclohexyl)oxy)-2-((5-(methoxycarbamoyl)-2-methylphenyl)amino)pyrimidine-5-carboxamide] cannot be ordered by IC50: over 1000 nM for the first, over 1000 nM for the second.

`C=CC(=O)N[C@@H]1CCCC[C@H]1Oc1nc(Nc2cc(C(N)=O)ccc2C)ncc1C(N)=O` (racemic) [Compound I-268, Rac-trans-4-((2-acrylamidocyclohexyl)oxy)-2-((5-carbamoyl-2-methylphenyl)amino)pyrimidine-5-carboxamide] and `C=CC(=O)N[C@@H]1CCCC[C@H]1Oc1nc(Nc2cc(C(N)=O)ccc2C)ncc1Cl` (racemic) [Compound I-270, Rac-trans-3-((4-((2-acrylamidocyclohexyl)oxy)-5-chloropyrimidin-2-yl)amino)-4-methylbenzamide] cannot be ordered by IC50: over 1000 nM for the first, over 1000 nM for the second.

First: C=CC(=O)Nc1ccccc1Nc1nc(N[C@H]2CC[C@H](O)CC2)ncc1C(F)(F)F [Compound I-1, Trans-N-(2-((2-((4-hydroxycyclohexyl)amino)-5-(trifluoromethyl)pyrimidin-4-yl)amino)phenyl)acrylamide]
Second: C=CC(=O)Nc1ccccc1Nc1nc(N[C@H]2CC[C@@H](O)CC2)ncc1C(F)(F)F [Compound I-109, N-(2-((2-(cis-(4-hydroxycyclohexyl)amino)-5-(trifluoromethyl)pyrimidin-4-yl)amino)phenyl)acrylamide]
The IC50 of the first is lower: 101 to 500 nM for the first, 501 to 999 nM for the second.

First: C=CC(=O)Nc1ccccc1Nc1nc(N[C@H]2CCCN(C(=O)C(C)=O)C2)ncc1C(F)(F)F [Compound I-49, (S)—N-(2-((2-((1-(2-Oxopropanoyl)piperidin-3-yl)amino)-5-(trifluoromethyl)pyrimidin-4-yl)amino)phenyl)acrylamide]
Second: C=CC(=O)Nc1ccccc1Nc1nc(N[C@H]2CCCN(C(=O)[C@@H](O)CO)C2)ncc1C(F)(F)F [Compound I-50, N-(2-((2-(((S)-1-((S)-2,3-Dihydroxypropanoyl)piperidin-3-yl)amino)-5-(trifluoromethyl)pyrimidin-4-yl)amino)phenyl)acrylamide]
The IC50 of the first is higher: 501 to 999 nM for the first, 101 to 500 nM for the second.

`C=CC(=O)Nc1ccccc1Nc1nc(N[C@H]2CCCN(C(=O)[C@H](O)CO)C2)ncc1C(F)(F)F` [Compound I-51, N-(2-((2-(((S)-1-((R)-2,3-Dihydroxypropanoyl)piperidin-3-yl)amino)-5-(trifluoromethyl)pyrimidin-4-yl)amino)phenyl)acrylamide] and `C=CC(=O)Nc1ccccc1Nc1nc(N[C@@H]2CCCN(C(C)=O)C2)ncc1Cl` [Compound I-128, (R)—N-(2-((2-((1-acetylpiperidin-3-yl)amino)-5-chloropyrimidin-4-yl)amino)phenyl)acrylamide] fall in the same range of IC50: 101 to 500 nM for the first, 101 to 500 nM for the second.

`C=CC(=O)Nc1ccccc1Nc1nc(Nc2cc(C(=O)O)ccc2C)ncc1C(F)(F)F` [Compound I-78, 3-((4-((2-Acrylamidophenyl)amino)-5-(trifluoromethyl)pyrimidin-2-yl)amino)-4-methylbenzoic acid] and `C=C(C)S(=O)(=O)Nc1ccccc1Nc1nc(Nc2cc(C(C)=O)ccc2C)ncc1C(F)(F)F` [Compound I-97, N-(2-((2-((5-acetyl-2-methylphenyl)amino)-5-(trifluoromethyl)pyrimidin-4-yl)amino)phenyl)prop-1-ene-2-sulfonamide] fall in the same range of IC50: 501 to 999 nM for the first, 501 to 999 nM for the second.

`C=CC(=O)Nc1ccccc1Nc1nc(N[C@H]2CC[C@H](OC)CC2)ncc1Cl` [Compound I-100] and `C=CC(=O)Nc1ccccc1Nc1nc(N[C@H]2CC[C@H](O)CC2)ncc1Cl` [Compound I-101] fall in the same range of IC50: 101 to 500 nM for the first, 101 to 500 nM for the second.

Compared with `C=CC(=O)N(C)c1ccccc1Nc1nc(N[C@H]2CC[C@H](O)CC2)ncc1Cl` [Compound I-104, N-(2-((5-chloro-2-(trans-(4-hydroxycyclohexyl)amino)pyrimidin-4-yl)amino)phenyl)-N-methylacrylamide], `C=CC(=O)Nc1ccccc1Nc1nc(Nc2ccc(N3CCC[C@H]3C(N)=O)cc2C#N)ncc1Cl` [Compound I-177, (S)-1-(4-((4-((2-acrylamidophenyl)amino)-5-chloropyrimidin-2-yl)amino)-3-cyanophenyl)pyrrolidine-2-carboxamide] is lower in IC50: 501 to 999 nM for the first, 101 to 500 nM for the second. The second is the more potent here.

First: C=CC(=O)Nc1ccccc1Nc1nc(Nc2ccc(N3CCNCC3)cc2OC(F)F)ncc1Cl [Compound I-142, N-(2-((5-chloro-2-((2-(difluoromethoxy)-4-(piperazin-1-yl)phenyl)amino)pyrimidin-4-yl)amino)phenyl)acrylamide]
Second: C=CC(=O)Nc1cc(OC)ccc1Nc1nc(Nc2ccc(N3CCN(C(C)=O)CC3)cc2OC)ncc1Cl [Compound I-152, N-(2-((2-((4-(4-acetylpiperazin-1-yl)-2-methoxyphenyl)amino)-5-chloropyrimidin-4-yl)amino)-5-methoxyphenyl)acrylamide]
The IC50 of the first is lower: 101 to 500 nM for the first, 501 to 999 nM for the second.

`C=CC(=O)Nc1cc(OC)ccc1Nc1nc(Nc2ccc(N3CCC[C@H]3CO)cc2C#N)ncc1Cl` [Compound I-163, (S)—N-(2-((5-chloro-2-((2-cyano-4-(2-(hydroxymethyl)pyrrolidin-1-yl)phenyl)amino)pyrimidin-4-yl)amino)-5-methoxyphenyl)acrylamide] and `C=CC(=O)Nc1cc(OC)ccc1Nc1nc(Nc2ccc(N3CCC[C@@H]3CO)cc2C#N)ncc1Cl` [Compound I-181, (R)—N-(2-((5-chloro-2-((2-cyano-4-(2-(hydroxymethyl)pyrrolidin-1-yl)phenyl)amino)pyrimidin-4-yl)amino)-5-methoxyphenyl)acrylamide] fall in the same range of IC50: 501 to 999 nM for the first, 501 to 999 nM for the second.

`C=CC(=O)Nc1ccccc1Nc1nc(Nc2ccc(N(CCCNC(=O)OC(C)(C)C)C(C)=O)cc2C(F)(F)F)ncc1Cl` [Compound I-169, tert-butyl(3-(N-(4-((4-((2-acrylamidophenyl)amino)-5-chloropyrimidin-2-yl)amino)-3-(trifluoromethyl)phenyl)acetamido)propyl)carbamate] and `C=CC(=O)Nc1ccccc1Nc1nc(Nc2ccc(N(CCCNC(=O)OC(C)(C)C)C(C)=O)cc2OC)ncc1Cl` [Compound I-173] fall in the same range of IC50: 501 to 999 nM for the first, 501 to 999 nM for the second.

First: C=CC(=O)Nc1cc(OC)ccc1Nc1nc(Nc2ccc(N(CC)C(C)=O)cc2OC)ncc1Cl [Compound I-175, N-(2-((5-chloro-2-((4-(N-ethylacetamido)-2-methoxyphenyl)amino)pyrimidin-4-yl)amino)-5-methoxyphenyl)acrylamide]
Second: C=CC(=O)Nc1cc(OC)ccc1Nc1nc(Nc2ccc(N(CC)C(C)=O)cc2C(F)(F)F)ncc1Cl [Compound I-176, N-(2-((5-chloro-2-((4-(N-ethylacetamido)-2-(trifluoromethyl)phenyl)amino)pyrimidin-4-yl)amino)-5-methoxyphenyl)acrylamide]
The IC50 of the first is lower: 101 to 500 nM for the first, 501 to 999 nM for the second. The first is the more potent here.
